Data from paper PMC3832525, “A Cell-Free Fluorometric High-Throughput Screen for Inhibitors of Rtt109-Catalyzed Histone Acetylation” (PLoS ONE, 2013).

Legend:
Rtt109-Vps75 complex = molecular target: T1, Rtt109-Vps75 complex (Saccharomyces cerevisiae, UniProt Q07794); assay: CPM-based fluorometric Rtt109-Vps75 HTS / dose-response assay; format: biochemical, S. cerevisiae
T1 construct: using two full-length physiologically relevant protein complexes; made in house
T1 sequence (Q07794 1-436): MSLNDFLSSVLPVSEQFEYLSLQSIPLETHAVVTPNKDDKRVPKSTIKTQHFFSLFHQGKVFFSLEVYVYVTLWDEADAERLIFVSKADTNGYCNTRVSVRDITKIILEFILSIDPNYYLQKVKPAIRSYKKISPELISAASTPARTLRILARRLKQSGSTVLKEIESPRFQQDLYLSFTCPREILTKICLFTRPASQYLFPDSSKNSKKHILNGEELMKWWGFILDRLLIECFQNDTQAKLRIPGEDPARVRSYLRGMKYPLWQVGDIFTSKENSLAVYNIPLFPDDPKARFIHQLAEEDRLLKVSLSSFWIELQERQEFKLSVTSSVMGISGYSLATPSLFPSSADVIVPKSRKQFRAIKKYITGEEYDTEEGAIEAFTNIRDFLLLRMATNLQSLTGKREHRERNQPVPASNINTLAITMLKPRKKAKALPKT
T1 sequence (P53853 1-264 partner): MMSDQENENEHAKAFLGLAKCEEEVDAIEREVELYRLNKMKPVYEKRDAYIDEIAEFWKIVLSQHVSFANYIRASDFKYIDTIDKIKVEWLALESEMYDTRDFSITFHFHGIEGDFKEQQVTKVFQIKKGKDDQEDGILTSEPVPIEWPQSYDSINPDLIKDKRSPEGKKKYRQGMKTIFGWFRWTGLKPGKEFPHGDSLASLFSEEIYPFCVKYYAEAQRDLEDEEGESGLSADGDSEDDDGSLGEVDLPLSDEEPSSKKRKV
Method: (§1) Compounds selected for dose-response analyses were tested in duplicate at eight compound concentrations, ranging from 40 nM to 125 µM final compound concentrations. Plate controls, dispensing steps and general assay procedures were unchanged from the aforementioned HTS procedures. Slot blots were performed using standard techniques with a Bio-Rad Bio-Dot SF microfiltration apparatus. Membranes were imaged with a LI-COR Odyssey and analyzed using Image Studio (LI-COR Biosciences). For the slot blot experiments, the assay plates included an additional plate control consisting of the Rtt109-Vps75 and Asf1-dH3-H4 complexes and no acetyl-CoA. Dose-response and slot blot experiments were replicated at least three times by independent experiments.

[1] = molecular target: T2, Rtt109-catalyzed histone acetylation (H3K56ac, H3K27ac, H3K9ac) (Saccharomyces cerevisiae, UniProt Q07794); assay: Orthogonal antibody-based slot blot assay of histone acetylation; format: biochemical, S. cerevisiae; details: reaction aliquots
T2 construct: using two full-length physiologically relevant protein complexes; made in house
T2 sequence (Q07794 1-436): T1 sequence (Q07794 1-436)
T2 sequence (P53853 1-264 partner): T1 sequence (P53853 1-264 partner)
Method: as §1
This method utilizes modification-specific antibodies to detect changes in the actual histone acetylation, rather than the CoA by-product. […] Equal protein content was verified by Ponceau S staining (Figure 5B).

β-lactamase = details: 10 µM
p300 = details: ref [69], [70]; cited from earlier work
PCAF = details: ref [69], [70]; cited from earlier work
Rtt109 = test system: Rtt109; parameters: method as in PMID 18568037; details: ref [11]; cited from earlier work

In the case of `O=C(O)C1=CC(=C(c2ccc(O)c(C(=O)O)c2)c2ccc(O)c(C(=O)O)c2)C=CC1=O` [ATA, aurintricarboxylic acid], the “signal reduction in HTS compound control wells” value (Rtt109-Vps75 complex; 10 µM final concentration) is reported as 50%.
With `C=C(C)[C@@H](CC=C(C)C)C[C@@]12C[C@@H](CC=C(C)C)C(C)(C)[C@@](CC=C(C)C)(C(=O)C(C(=O)c3ccc(O)c(O)c3)=C1O)C2=O` [garcinol] the “H3K9ac by slot blot” value ([1]; modification-specific antibody) was “dose-dependent decreases”, the “H3K27ac by slot blot” value ([1]; modification-specific antibody) was “dose-dependent decreases” and the “H3K56ac by slot blot” value ([1]; modification-specific antibody) was “dose-dependent decreases”. The “inhibition of β-lactamase activity, detergent present” value (β-lactamase; 0.01% Triton X-100) was “no such inhibition was observed”, the “inhibition of β-lactamase activity, detergent-free” value (β-lactamase; absence of detergent) was “only modest inhibition” and the IC50 (p300) was 7 µM. The IC50 (PCAF) was […].
With `OC(Cn1cncn1)(Cn1cncn1)c1ccc(F)cc1F` [fluconazole] the “activity against Rtt109-catalyzed histone acetylation in the CPM-based assay” value (Rtt109-Vps75 complex; dose-response, negative compound control) was “but not fluconazole, showed modest activity” and the “histone acetylation by slot blot” value [1] was “did not show any measureable decrease”.
In the case of `CC(=O)N[C@@H](CCCCNC(=O)CSCCNC(=O)CCNC(=O)[C@H](O)C(C)(C)COP(=O)(O)OP(=O)(O)OC[C@H]1O[C@@H](n2cnc3c(N)ncnc32)[C@H](O)[C@@H]1OP(=O)(O)O)C(N)=O` [Lys-CoA], the “activity versus Rtt109” value (Rtt109) is given as “have not shown activity”.
